Earlier results in patent publication US20210315250A1, “COMBINATION BROAD-SPECTRUM ANTIVIRAL NATURAL EXTRACT SUPPLEMENTS” (priority 2020, published 2021).

How the values were obtained:
[1] = target: ACE2 receptor (Homo sapiens, UniProt Q9BYF1)
[2] = target: viral S protein (Severe acute respiratory syndrome coronavirus 2, UniProt P0DTC2)
[3] = target: SARS-CoV 3CL (Severe acute respiratory syndrome coronavirus, UniProt P0C6X7)
[4] = test system: influenza
[5] = test system: docking site for SARS-CoV-2
[6] = test system: HSV-1
[7] = test system: SVS
[8] = test system: HIV

ACE2 receptor, sequence (Q9BYF1 18-805): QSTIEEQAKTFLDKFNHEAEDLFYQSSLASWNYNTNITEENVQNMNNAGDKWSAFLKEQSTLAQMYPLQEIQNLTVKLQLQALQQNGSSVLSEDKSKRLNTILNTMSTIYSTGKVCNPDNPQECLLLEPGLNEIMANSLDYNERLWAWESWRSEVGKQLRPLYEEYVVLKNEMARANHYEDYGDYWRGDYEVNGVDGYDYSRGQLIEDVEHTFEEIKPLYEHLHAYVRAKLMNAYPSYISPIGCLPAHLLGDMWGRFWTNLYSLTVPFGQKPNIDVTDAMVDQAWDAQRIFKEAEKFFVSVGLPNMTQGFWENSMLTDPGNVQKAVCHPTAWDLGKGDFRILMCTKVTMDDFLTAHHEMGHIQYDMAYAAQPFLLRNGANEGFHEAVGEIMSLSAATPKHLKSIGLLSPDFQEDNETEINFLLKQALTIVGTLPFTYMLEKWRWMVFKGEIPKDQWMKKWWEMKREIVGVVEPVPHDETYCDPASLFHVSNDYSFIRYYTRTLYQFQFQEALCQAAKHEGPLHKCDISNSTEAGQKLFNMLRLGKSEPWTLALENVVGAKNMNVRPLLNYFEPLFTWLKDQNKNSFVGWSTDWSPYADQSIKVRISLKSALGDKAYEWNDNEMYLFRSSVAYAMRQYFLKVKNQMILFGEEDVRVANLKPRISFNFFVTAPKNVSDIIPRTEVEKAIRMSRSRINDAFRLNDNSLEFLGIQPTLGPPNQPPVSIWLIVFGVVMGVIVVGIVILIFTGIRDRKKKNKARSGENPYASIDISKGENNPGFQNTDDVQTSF

Molecule: COc1cc(/C=C/C(=O)CC(=O)/C=C/c2ccc(O)c(OC)c2)ccc1O [Curcumin]
- interaction with ACE2 receptor docking site [1]: interact
- interaction with viral S protein docking site [2]: interact

Molecule: O=c1cc(-c2ccc(O)c(O)c2)oc2cc(O)cc(O)c12 [Luteolin]
- inhibition of the docking site for SARS-CoV 3CL [3]: inhibit

Molecule: CC(=O)C=O [Methylglyoxal]
- inhibition of viruses, in particular influenza [4]: inhibit

Molecule: O=c1c(O)c(-c2cc(O)c(O)c(O)c2)oc2cc(O)cc(O)c12 [Myricetin]
- inhibition of the docking site for SARS-CoV-2 [5]: inhibit

Molecule: O=C1OC[C@H](Cc2ccc3c(c2)OCO3)/C1=C\c1ccc2c(c1)OCO2 [Savinin]
- inhibition of the docking site for SARS-CoV 3CL [3]: inhibit

Molecule: C/C=C/c1ccc(OC)cc1 [Trans-anethole]
- inhibition of HSV-1 [6]: inhibit

Molecule: O=c1c(O)c(-c2ccc(O)cc2)oc2c(O)c(O)cc(O)c12 [herbacetin]
- binding to SARS-CoV 3CL [3]: bind

Molecule: CCCCCCCCCCCCCC(=O)O [myristic acid]
- inhibition of SVS [7]: inhibit
- inhibition of HIV [8]: inhibit

Molecule: COc1ccc(-c2cc(=O)c3c(O)c(OC)c(O[C@@H]4O[C@H](CO[C@@H]5O[C@@H](C)[C@H](O)[C@@H](O)[C@H]5O)[C@@H](O)[C@H](O)[C@H]4O)cc3o2)cc1 [pectolinarin]
- binding to SARS-CoV 3CL [3]: bind

Molecule: C[C@@H]1O[C@@H](O[C@H]2[C@H](Oc3cc(O)c4c(=O)cc(-c5ccc(O)cc5)oc4c3)O[C@H](CO)[C@@H](O)[C@@H]2O)[C@H](O)[C@H](O)[C@H]1O [rhoifolin]
- binding to SARS-CoV 3CL [3]: bind

Molecule: caryophyllene
- inhibition of HSV-1 [6]: inhibit
